Laboratory results taken from patent publication EP1650209A1, “Griseusin derivatives and their use as antitumor agents” (Oncotest GmbH, priority 2004, dated 2006).
In brackets after ≈: the same amount, converted by molar mass.

Legend:
Format in all cases: cell-based, human
[1] = test system: MDA-231; assay: Proliferation inhibition of cancer cells (propidium iodide fluorescence); conditions: Breast, MDA-231 cell line
Procedure: (§1) Using various human cancer cells in vitro, the concentrations of the test compounds (A, B, C, D, E, F), which inhibit the proliferation of cancer cells by 50% (IC50) and 70% (IC70) were determined. Specifically, each cell line of bladder cancer (BXF 1218L and T-24), glioblastoma (CNXF 498NL), colic cancer (HCT-116 and HT-29), gastric cancer (GXF 251 L), head and neck cancer (HNXF 536L), non small cell lung cancer (LXF 1121L, LXF 289L, LXF 526L, LXF 529L, LXF 629L and H-460), mammary cancer (MAXF 401NL, MCF-7, MDA-231 and MDA-468), melanoma (MEXF 276L, MEXF 394NL, MEXF 462NL, MEXF 514L and MEXF 520L), ovary cancer (OVXF 1619L, OVXF 899L and OVCAR-3), pancreatic cancer (PAXF 1657L and PANC-1), prostate cancer (22Rv1, DU-145, LNCaP and PC3M), pleuramesothelioma (PXF 1752L), renal cancer (RXF 1781 L, RXF 393NL, RXF 486L and RXF 944L), and uterine cancer (UXF 1138L) is added to a 96-well microtiter plate at a density of 3.6-11.2x10^3 cells per well in RPMI-1640 medium containing 10% fetal calf serum and 0.1% gentamicin and incubated for 24 hours. After 24 hours RPMI-1640 medium containing 10% fetal calf serum and 0.1% gentamicin, together with a test compound, is added thereto. Then, this plate is incubated at 37°C for 4 days in a humidified atmosphere of air containing 5% CO2. Thereafter, the cell culture medium with or without drug was replaced by 200 µl of an aqueous PI solution (7 µg/ml propidium iodide). Applying a freeze thaw cycle to permeabilize intact cell walls, staining of DNA was achieved, and the fluorescence of each well was measured using the Cy-tofluor 4000 microplate reader (excitation 530 nm, emission 620 nm), giving a direct relationship to the total cell number. Proliferation inhibition is expressed as test versus untreated control (T/C-value [%]). IC50 and IC70 values were determined by plotting compound concentration versus cell viability.

[2] = test system: LXFA 1121 L; assay: as above; conditions: Lung, non small cell, LXFA 1121 L cell line
Procedure: as §1

[3] = test system: HNXF 536L; assay: as above; conditions: Head and Neck, HNXF 536L cell line
Procedure: as §1

[4] = test system: HCT-116; assay: as above; conditions: Colon, HCT-116 cell line
Procedure: as §1

[5] = test system: MEXF 394NL; assay: as above; conditions: Melanoma, MEXF 394NL cell line
Procedure: as §1

[6] = test system: PAXF 1657L; assay: as above; conditions: Pancreas, PAXF 1657L cell line
Procedure: as §1

[7] = test system: PANC-1; assay: as above; conditions: Pancreas, PANC-1 cell line
Procedure: as §1

[8] = test system: OVXF 1619L; assay: as above; conditions: Ovary, OVXF 1619L cell line
Procedure: as §1

[9] = test system: T-24; assay: as above; conditions: Bladder, T-24 cell line
Procedure: as §1

[10] = test system: MAXF 401NL; assay: as above; conditions: MAXF 401NL cell line
Procedure: as §1

[11] = test system: PXF 1752L; assay: as above; conditions: Pleuramesothelio, PXF 1752L cell line
Procedure: as §1

[12] = test system: RXF 1781 L; assay: as above; conditions: Kidney, RXF 1781 L cell line
Procedure: as §1

[13] = test system: DU-145; assay: as above; conditions: Prostate, DU-145 cell line
Procedure: as §1

[14] = test system: LXFA 629L; assay: as above; conditions: Lung, non small cell, LXFA 629L cell line
Procedure: as §1

[15] = test system: MEXF 514L; assay: as above; conditions: Melanoma, MEXF 514L cell line
Procedure: as §1

[16] = test system: OVXF 899L; assay: as above; conditions: Ovary, OVXF 899L cell line
Procedure: as §1

[17] = test system: LXFA 289L; assay: as above; conditions: Lung, non small cell, LXFA 289L cell line
Procedure: as §1

[18] = test system: UXF 1138L; assay: as above; conditions: UXF 1138L cell line
Procedure: as §1

[19] = test system: OVCAR-3; assay: as above; conditions: Ovary, OVCAR-3 cell line
Procedure: as §1

[20] = test system: MCF-7; assay: as above; conditions: Breast, MCF-7 cell line
Procedure: as §1

[21] = test system: RXF 944L; assay: as above; conditions: Kidney, RXF 944L cell line
Procedure: as §1

[22] = test system: H-460; assay: as above; conditions: Lung, non small cell, H-460 cell line
Procedure: as §1

[23] = test system: MEXF 520L; assay: as above; conditions: Melanoma, MEXF 520L cell line
Procedure: as §1

[24] = test system: LXFS 538; assay: Clonogenic assay, colony formation of tumor stem cells from xenografts; conditions: Lung, small cell, xenograft LXFS 538, colony formation

SMILES: C[C@@H]1CC(=O)[C@@H](O)[C@]2(O1)O[C@@H]1CC(=O)O[C@@H]1C1=C2C(=O)c2c(O)cccc2C1=O [Compound B, 4'-dehydro-deacetylgriseusin A]
- IC50 [1]: 0.068 µg/mL (≈ 0.17 µM)
- IC70 [1]: 0.136 µg/mL (≈ 0.34 µM)
- IC50 [2]: 0.083 µg/mL (≈ 0.207 µM)
- IC70 [2]: 0.147 µg/mL (≈ 0.367 µM)
- IC50 [3]: 0.237 µg/mL (≈ 0.592 µM)
- IC70 [3]: 0.716 µg/mL (≈ 1.79 µM)
- IC50 [4]: 0.697 µg/mL (≈ 1.74 µM)
- IC70 [4]: 1.333 µg/mL (≈ 3.33 µM)
- IC50 [5]: 0.035 µg/mL (≈ 0.0874 µM)
- IC70 [5]: 0.086 µg/mL (≈ 0.215 µM)
- IC50 [6]: 0.094 µg/mL (≈ 0.235 µM)
- IC70 [6]: 0.179 µg/mL (≈ 0.447 µM)
- IC50 [7]: 0.117 µg/mL (≈ 0.292 µM)
- IC70 [7]: 0.200 µg/mL (≈ 0.5 µM)
- IC50 [8]: 0.242 µg/mL (≈ 0.604 µM)
- IC70 [8]: 0.916 µg/mL (≈ 2.29 µM)
- IC50 [9]: 0.507 µg/mL (≈ 1.27 µM)
- IC70 [9]: 1.137 µg/mL (≈ 2.84 µM)
- IC50 ([10]; Breast): 0.090 µg/mL (≈ 0.225 µM)
- IC70 ([10]; Breast): 0.160 µg/mL (≈ 0.4 µM)
- IC50 value ([10]; 4 days): 0.09 µg/mL (≈ 0.225 µM)
- IC50 [11]: 0.124 µg/mL (≈ 0.31 µM)
- IC70 [11]: 0.208 µg/mL (≈ 0.52 µM)
- IC50 [12]: 0.407 µg/mL (≈ 1.02 µM)
- IC70 [12]: 1.134 µg/mL (≈ 2.83 µM)
- IC50 [13]: 0.251 µg/mL (≈ 0.627 µM)
- IC70 [13]: 0.669 µg/mL (≈ 1.67 µM)
- IC50 [14]: 0.234 µg/mL (≈ 0.585 µM)
- IC70 [14]: 0.671 µg/mL (≈ 1.68 µM)
- IC50 [15]: 0.087 µg/mL (≈ 0.217 µM)
- IC70 [15]: 0.149 µg/mL (≈ 0.372 µM)
- IC50 [16]: 1.265 µg/mL (≈ 3.16 µM)
- IC70 [16]: 2.249 µg/mL (≈ 5.62 µM)
- IC50 [17]: 8.770 µg/mL (≈ 21.9 µM)
- IC70 [17]: 14.801 µg/mL (≈ 37 µM)
- IC50 value ([18]; 4 days): 0.216 µg/mL (≈ 0.54 µM)
- IC50 ([18]; Uterus): 0.216 µg/mL (≈ 0.54 µM)
- IC70 ([18]; Uterus): 0.524 µg/mL (≈ 1.31 µM)
- IC50 [19]: 0.521 µg/mL (≈ 1.3 µM)
- IC70 [19]: 1.309 µg/mL (≈ 3.27 µM)
- IC50 [20]: 0.138 µg/mL (≈ 0.345 µM)
- IC70 [20]: 0.210 µg/mL (≈ 0.525 µM)
- IC50 [21]: 0.038 µg/mL (≈ 0.0949 µM)
- IC70 [21]: 0.107 µg/mL (≈ 0.267 µM)
- IC50 [22]: 0.490 µg/mL (≈ 1.22 µM)
- IC70 [22]: 1.042 µg/mL (≈ 2.6 µM)
- IC50 [23]: 0.102 µg/mL (≈ 0.255 µM)
- IC70 [23]: 0.175 µg/mL (≈ 0.437 µM)
- IC50 [24]: 0.307 µg/mL (≈ 0.767 µM)
- IC70 [24]: 0.502 µg/mL (≈ 1.25 µM)
